We go through 17 compounds from patent US20150038438A1, “ANTIBACTERIAL COMPOUNDS AND METHODS FOR USE” (PTC THERAPEUTICS, INC., priority 2011, published 2015).

Converted amounts (≈) assume the structure as drawn.

What all share (assay): Antibacterial activity, microbroth dilution method (MIC)
The test system of assay [1] is Gram-positive Staphylococcus aureus (S. aureus) 29213. It counts as cell-based. The settings on record: Staphylococcus aureus, Gram-positive S. aureus 29213. The method in brief:
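Lowest concentration stopping macroscopically visible growth under test conditions, by broth microdilution, defines the MIC (μg/mL).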

Assay [2] has as its system super sensitive Gram-negative Escherichia coli (E. coli) BAS849. The class given is cell-based. The note with it: Escherichia coli; super sensitive Gram-negative E. coli BAS849; microbroth dilution; read-out: MIC, E. coli BAS849. The method in brief:
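In a microbroth dilution test, the minimum inhibitory concentration was defined as the lowest compound level preventing growth seen by eye, and was given in μg/mL.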
(In general: Broth dilution looks for growth in wells or tubes with falling amounts of substance.)

Assay [3] relates to control Gram-negative E. coli 25922 strain. It counts as cell-based, Escherichia coli. The settings on record: Escherichia coli. An outline of the steps: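 Growth inhibition by microbroth dilution. MIC = lowest μg/mL with no visible growth. Strain 25922 is the control Gram-negative; BAS849 is hypersensitive.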

For orientation: MIC means the lowest concentration found to suppress growth. `Cl.Cn1c(CN2CCC(O)C2)cc2cc3c(cc21)CCCc1c-3[nH]c(=O)c(C(=O)O)c1O` (stereo not drawn) [Cpd 51, 4-hydroxy-10-((3-hydroxypyrrolidin-1-yl)methyl)-9-methyl-2-oxo-1,2,5,6,7,9-hexahydropyrido[3′,2′:6,7]cyclohepta[1,2-f]indole-3-carboxylic acid hydrochloride]: the MIC in assay [1] was 3.5 to 12.5 µg/mL; in assay [2], less than 1 µg/mL; in assay [3] it was 1 to 3.5 µg/mL.
Taken in the same sequence, the figures for `CCCCNCc1cc2cc3c(cc2n1C)CCCc1c-3[nH]c(=O)c(C(=O)O)c1O.Cl` [Cpd 136, 10-((butylamino)methyl)-4-hydroxy-9-methyl-2-oxo-1,2,5,6,7,9-hexahydropyrido[3′,2′:6,7]cyclohepta[1,2-f]indole-3-carboxylic acid hydrochloride] were 3.5 to 12.5 µg/mL, less than 1 µg/mL and less than 1 µg/mL.
The like results for `Cl.Cn1c(CNC(C)(C)C)cc2cc3c(cc21)NCCc1c-3[nH]c(=O)c(C(=O)O)c1O` [Cpd 102, 10-((tert-butylamino)methyl)-4-hydroxy-9-methyl-2-oxo-1,2,5,6,7,9-hexahydropyrido[2′,3′:4,5]azepino[3,2-f]indole-3-carboxylic acid hydrochloride] were, in that order, 12.5 to 150 µg/mL, 1 to 3.5 µg/mL and 3.5 to 12.5 µg/mL.
Taken in the same sequence, the figures for `CC(C)NCc1cc2cc3c(cc2n1C)NCCCc1c-3[nH]c(=O)c(C(=O)O)c1O.Cl` [Cpd 105, 4-hydroxy-11-((isopropylamino)methyl)-10-methyl-2-oxo-2,5,6,7,8,10-hexahydro-1H-pyrido[2′,3′:4,5]azocino[3,2-f]indole-3-carboxylic acid hydrochloride] were 12.5 to 150 µg/mL, 1 to 3.5 µg/mL and 3.5 to 12.5 µg/mL.
Regarding `Cl.Cn1c(CNCc2ccccc2)cc2cc3c(cc21)CCCc1c-3[nH]c(=O)c(C(=O)O)c1O` [Cpd 34, 10-((benzylamino)methyl)-4-hydroxy-9-methyl-2-oxo-1,2,5,6,7,9-hexahydropyrido[3′,2′:6,7]cyclohepta[1,2-f]indole-3-carboxylic acid hydrochloride], the MIC is 1 to 3.5 µg/mL in assay [1], less than 1 µg/mL in assay [2] and 1 to 3.5 µg/mL in assay [3].
As for `Cl.Cn1c(CNCC(C)(C)C)cc2cc3c(cc21)CCCc1c-3[nH]c(=O)c(C(=O)O)c1O` [Cpd 155, 4-hydroxy-9-methyl-10-((neopentylamino)methyl)-2-oxo-1,2,5,6,7,9-hexahydropyrido[3′,2′:6,7]cyclohepta[1,2-f]indole-3-carboxylic acid hydrochloride], the values for the MIC in assay [1], in assay [2] and in assay [3] were 3.5 to 12.5 µg/mL, less than 1 µg/mL and 1 to 3.5 µg/mL, respectively.
Taken in the same sequence, the figures for `Cl.Cl.Cn1c(CN2CCCC(N)C2)cc2cc3c(cc21)CCCc1c-3[nH]c(=O)c(C(=O)O)c1O` (stereo not drawn) [Cpd 31, 10-((3-aminopiperidin-1-yl)methyl)-4-hydroxy-9-methyl-2-oxo-1,2,5,6,7,9-hexahydropyrido[3′,2′:6,7]cyclohepta[1,2-f]indole-3-carboxylic acid dihydrochloride] were 12.5 to 150 µg/mL, 1 to 3.5 µg/mL and 3.5 to 12.5 µg/mL.
The like results for `CC1COc2cc(N3CCCC3)ccc2-c2[nH]c(=O)c(C(=O)O)c(O)c21` (stereo not drawn) [Cpd 83, 4-hydroxy-5-methyl-2-oxo-9-(pyrrolidin-1-yl)-1,2,5,6-tetrahydrobenz[2,3]oxepino[4,5-b]pyridine-3-carboxylic acid] were, in that order, 3.5 to 12.5 µg/mL (≈ 9.82 to 35.1 µM), less than 1 µg/mL and 12.5 to 150 µg/mL (≈ 35.1 to 421 µM).
Taken in the same sequence, the figures for `CCCCCNCc1cc2cc3c(cc2n1C)CCCc1c-3[nH]c(=O)c(C(=O)O)c1O.Cl` [Cpd 137, 4-hydroxy-9-methyl-2-oxo-10-((pentylamino)methyl)-1,2,5,6,7,9-hexahydropyrido[3′,2′:6,7]cyclohepta[1,2-f]indole-3-carboxylic acid hydrochloride] were 3.5 to 12.5 µg/mL, less than 1 µg/mL and less than 1 µg/mL.
In the case of `CCNCc1cc2c3c(ccc2n1C)-c1[nH]c(=O)c(C(=O)O)c(O)c1CCC3.Cl` [Cpd 61, 2-((ethylamino)methyl)-7-hydroxy-1-methyl-9-oxo-1,4,5,6,9,10-hexahydropyrido[2′,3′:3,4]cyclohepta[1,2-e]indole-8-carboxylic acid hydrochloride], the results for the MIC in assay [1], in assay [2] and in assay [3] were 12.5 to 150 µg/mL, 3.5 to 12.5 µg/mL and 3.5 to 12.5 µg/mL, respectively.
In the case of `CC(C)NCc1cc2cc3c(cc2n1C)CCCc1cc(C(=O)O)c(=O)[nH]c1-3.Cl` [Cpd 55, 10-((isopropylamino)methyl)-9-methyl-2-oxo-1,2,5,6,7,9-hexahydropyrido[3′,2′:6,7]cyclohepta[1,2-f]indole-3-carboxylic acid hydrochloride], the results for the MIC in assay [1], in assay [2] and in assay [3] were 12.5 to 150 µg/mL, less than 1 µg/mL and 1 to 3.5 µg/mL, respectively.
Taken in the same sequence, the figures for `CN(C)CCNc1ccc2c(c1)CCCc1c-2[nH]c(=O)c(C(=O)O)c1O.Cl` [Cpd 113, 9-((2-(dimethylamino)ethyl)amino)-4-hydroxy-2-oxo-2,5,6,7-tetrahydro-1H-benzo[6,7]cyclohepta[1,2-b]pyridine-3-carboxylic acid hydrochloride] were 12.5 to 150 µg/mL, 3.5 to 12.5 µg/mL and 12.5 to 150 µg/mL.
In the case of `CN1CCN(c2ccc3c(c2)CCCc2c-3[nH]c(=O)c(C(=O)O)c2O)CC1.Cl` [Cpd 120, 4-hydroxy-9-(4-methylpiperazin-1-yl)-2-oxo-2,5,6,7-tetrahydro-1H-benzo[6,7]cyclohepta[1,2-b]pyridine-3-carboxylic acid hydrochloride], the values for the minimum inhibitory concentration (MIC) in assay [1], in assay [2] and in assay [3] were 12.5 to 150 µg/mL, 1 to 3.5 µg/mL and 12.5 to 150 µg/mL, respectively.
Turning to `CC1Oc2cc(N3CCCC3)ccc2-c2[nH]c(=O)c(C(=O)O)cc21` (stereo not drawn) [Cpd 74, 5-methyl-2-oxo-8-(pyrrolidin-1-yl)-2,5-dihydro-1H-chromeno[4,3-b]pyridine-3-carboxylic acid], the MIC was in the range of 12.5 to 150 µg/mL (≈ 38.3 to 460 µM) in assay [1], 1 to 3.5 µg/mL (≈ 3.06 to 10.7 µM) in assay [2] and 12.5 to 150 µg/mL (≈ 38.3 to 460 µM) in assay [3].
`CC1CC1CNCc1cc2cc3c(cc2n1C)CCCc1c-3[nH]c(=O)c(C(=O)O)c1O.Cl` (stereo not drawn) [Cpd 38, 4-hydroxy-9-methyl-10-((((2-methylcyclopropyl)methyl)amino)methyl)-2-oxo-1,2,5,6,7,9-hexahydropyrido[3′,2′:6,7]cyclohepta[1,2-f]indole-3-carboxylic acid hydrochloride]: the MIC in assay [1] was 3.5 to 12.5 µg/mL; in assay [2] it was less than 1 µg/mL; in assay [3] it was 1 to 3.5 µg/mL.
The like results for `O=C(O)c1cc2c([nH]c1=O)-c1ccc(N3CCCC3)cc1OCC2` [Cpd 81, 2-oxo-9-(pyrrolidin-1-yl)-1,2,5,6-tetrahydrobenzo[2,3]oxepino[4,5-b]pyridine-3-carboxylic acid] were, in that order, 12.5 to 150 µg/mL (≈ 38.3 to 460 µM), less than 1 µg/mL and 12.5 to 150 µg/mL (≈ 38.3 to 460 µM).
In the case of `COc1ccc(CNCc2cc3cc4c(cc3n2C)OCCc2c-4[nH]c(=O)c(C(=O)O)c2O)c(OC)c1.Cl` [Cpd 170, 10-(((2,4-dimethoxybenzyl)amino)methyl)-4-hydroxy-9-methyl-2-oxo-2,5,6,9-tetrahydro-1H-pyrido[2′,3′:4,5]oxepino[3,2-f]indole-3-carboxylic acid hydrochloride], the results for the MIC in assay [1], in assay [2] and in assay [3] were 1 to 3.5 µg/mL, less than 1 µg/mL and 1 to 3.5 µg/mL, respectively.
